Source: ChEMBL document CHEMBL1201862, “PubChem BioAssay data set” (2004)
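Test compounds were applied to cells in 96-well plates for 48 hours at 5 doses. At the GI50, growth is halved.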 The source made the active and inactive calls. No stated cut-off is given here; in the data, active = GI50 up to about 1.1 µM and inactive = higher.

Assays:
Experiment in all cases: NCI anticancer screen, dose series, 48 h
SNB-78 = tested on: SNB-78
NCI-H23 = tested on: NCI-H23
SNB-75 = tested on: SNB-75
OVCAR-8 = tested on: OVCAR-8
UACC-62 = tested on: UACC-62
SK-MEL-2 = tested on: SK-MEL-2
HL-60 = tested on: HL-60
DLD-1 = tested on: DLD-1
HOP-62 = tested on: HOP-62
SNB-19 = tested on: SNB-19
CAKI-1 = tested on: CAKI-1
K562 = tested on: K562
HCT-15 = tested on: HCT-15
KM12 = tested on: KM12
ACHN = tested on: ACHN
DMS-114 = tested on: DMS-114
OVCAR-3 = tested on: OVCAR-3
SW-620 = tested on: SW-620
A498 = tested on: A498
UO-31 = tested on: UO-31
COLO 205 = tested on: COLO 205
UACC-257 = tested on: UACC-257
LXFL 529 = tested on: LXFL 529
786-0 = tested on: 786-0
SF-295 = tested on: SF-295
HCT-116 = tested on: HCT-116
HT-29 = tested on: HT-29
SF-539 = tested on: SF-539
DMS-273 = tested on: DMS-273
Malme-3M = tested on: Malme-3M
NCI-H522 = tested on: NCI-H522
SK-MEL-5 = tested on: SK-MEL-5
XF498 = tested on: XF498
IGROV-1 = tested on: IGROV-1
SK-OV-3 = tested on: SK-OV-3
A549 = tested on: A549
KM-20L2 = tested on: KM-20L2
RXF 393 = tested on: RXF 393
OVCAR-4 = tested on: OVCAR-4
CCRF-CEM = tested on: CCRF-CEM
NCI-H460 = tested on: NCI-H460
M14 = tested on: M14
RPMI-8226 = tested on: RPMI-8226
EKVX = tested on: EKVX
TK-10 = tested on: TK-10
SF-268 = tested on: SF-268
MOLT-4 = tested on: MOLT-4
SK-MEL-28 = tested on: SK-MEL-28
U-251 = tested on: U-251
SN12C = tested on: SN12C
HCC 2998 = tested on: HCC 2998

Cc1nc(N)nn1C1OCC(O)C(O)C1O (stereo unspecified)
GI50 (SNB-78): > 100 µM (inactive) | GI50 (NCI-H23): > 100 µM (inactive) | GI50 (SNB-75): 93.5 µM (inactive) | GI50 (OVCAR-8): > 100 µM (inactive) | GI50 (UACC-62): > 100 µM (inactive) | GI50 (SK-MEL-2): > 100 µM (inactive) | GI50 (HL-60): > 100 µM (inactive) | GI50 (DLD-1): > 100 µM (inactive) | GI50 (HOP-62): > 100 µM (inactive) | GI50 (SNB-19): > 100 µM (inactive) | GI50 (CAKI-1): > 100 µM (inactive) | GI50 (K562): > 100 µM (inactive) | GI50 (HCT-15): > 100 µM | GI50 (KM12): > 100 µM (inactive) | GI50 (ACHN): > 100 µM (inactive) | GI50 (DMS-114): > 100 µM (inactive) | GI50 (OVCAR-3): > 100 µM (inactive) | GI50 (SW-620): > 100 µM (inactive) | GI50 (A498): > 100 µM (inactive) | GI50 (UO-31): > 100 µM (inactive) | GI50 (COLO 205): > 100 µM (inactive) | GI50 (UACC-257): > 100 µM (inactive) | GI50 (LXFL 529): > 100 µM (inactive) | GI50 (786-0): > 100 µM (inactive) | GI50 (SF-295): > 100 µM (inactive) | GI50 (HCT-116): > 100 µM (inactive) | GI50 (HT-29): > 100 µM (inactive) | GI50 (SF-539): > 100 µM (inactive) | GI50 (DMS-273): > 100 µM (inactive) | GI50 (Malme-3M): > 100 µM (inactive) | GI50 (NCI-H522): > 100 µM (inactive) | GI50 (SK-MEL-5): > 100 µM (inactive) | GI50 (XF498): > 100 µM (inactive) | GI50 (IGROV-1): > 100 µM (inactive) | GI50 (SK-OV-3): > 100 µM (inactive) | GI50 (A549): > 100 µM (inactive) | GI50 (KM-20L2): > 100 µM (inactive) | GI50 (RXF 393): > 100 µM (inactive) | GI50 (OVCAR-4): > 100 µM (inactive) | GI50 (CCRF-CEM): > 100 µM (inactive) | GI50 (NCI-H460): > 100 µM (inactive) | GI50 (M14): > 100 µM (inactive) | GI50 (RPMI-8226): > 100 µM (inactive) | GI50 (EKVX): > 100 µM (inactive) | GI50 (TK-10): > 100 µM (inactive) | GI50 (SF-268): > 100 µM (inactive) | GI50 (MOLT-4): > 100 µM (inactive) | GI50 (SK-MEL-28): > 100 µM (inactive) | GI50 (U-251): > 100 µM (inactive) | GI50 (SN12C): > 100 µM (inactive) | GI50 (HCC 2998): > 100 µM (inactive)
